The source of these data is article PMC12371494, “Discovery of YTHDF2 Ligands by Fragment-Based Design” (ACS Bio & Med Chem Au, 2025).

One assay deals with T1, GST-YTHDF2 (Homo sapiens, UniProt Q9Y5A9).
T1 construct: made in house
T1 sequence (Q9Y5A9 1-579): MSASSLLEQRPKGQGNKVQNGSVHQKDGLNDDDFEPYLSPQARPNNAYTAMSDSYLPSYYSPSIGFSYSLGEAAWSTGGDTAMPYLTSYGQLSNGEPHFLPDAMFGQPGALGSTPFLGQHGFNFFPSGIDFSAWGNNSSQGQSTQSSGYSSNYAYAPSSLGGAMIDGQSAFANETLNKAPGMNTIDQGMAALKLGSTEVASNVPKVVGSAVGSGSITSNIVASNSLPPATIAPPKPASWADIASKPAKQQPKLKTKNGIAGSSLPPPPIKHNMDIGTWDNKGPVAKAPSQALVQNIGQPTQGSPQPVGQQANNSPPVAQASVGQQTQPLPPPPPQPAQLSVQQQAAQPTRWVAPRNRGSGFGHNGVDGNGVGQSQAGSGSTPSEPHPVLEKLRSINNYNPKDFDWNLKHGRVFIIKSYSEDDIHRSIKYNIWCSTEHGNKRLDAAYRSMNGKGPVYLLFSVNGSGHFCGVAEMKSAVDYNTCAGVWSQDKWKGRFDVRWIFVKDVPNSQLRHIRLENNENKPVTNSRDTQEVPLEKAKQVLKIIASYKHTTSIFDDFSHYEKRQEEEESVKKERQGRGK
Briefly: HTRF-based binding assay, competition with m6A-oligoRNA, DF2. As to conditions: for Single-dose residual signal at 100 µM, DF2: HTRF, 100 µM compound, normalized; for LE (ligand efficiency, DF2): LE = -RT ln IC50/HAC from HTRF IC50; for IC50: dose-response, competitor m6A-oligoRNA, read-out: DF2 IC50 (HTRF assay); for Improvement of HTRF IC50 compared to fragment 14: HTRF DF2. On the technique in general: In TR-FRET formats the signal depends on donor and acceptor labels being close together.

In a further assay the target is YTHDC1 (Homo sapiens, UniProt Q96MU7). Description: DNA-fluorescence polarization (FP) competition assay, DC1. It is filed as binding. As to conditions: for Selectivity DF2 over DC1 (Kd ratio DC1/DF2): FP Kd values. On the procedure: The binding affinity for DC1 could not be evaluated by HTRF because of interference of the compounds with the assay, which has a smaller assay window when performed with DC1 compared to the DF proteins. Thus, the FP assay was used to evaluate binding to DC1 and DC2.
(§1) For fluorescence polarization (FP) experiments, a 5′-fluorescein-labeled m^6A-DNA probe (5′-FAM-[…](m6A)-CTAAGCT-3′) was synthesized by Microsynth AG.
(§2) The final concentration of the fluorescein-labeled DNA was kept constant at 3 nM. For YTHDC2 measurements, the protein concentration was set to 25 nM, while for YTHDF2 measurements, it was set to 10 nM, and for YTHDC1, it was set at 15 nM. The compound concentration was serially diluted to obtain the dose–response curve. The competition experiments were conducted in a final volume of 20 μL in a buffer containing 20 mM Tris–HCl (pH 7.4), 150 mM NaCl, and 0.01% bovine serum albumin (BSA), using a 384-well black flat-bottomed microplate (Corning 3575).
(§3) After incubating the mixture for 1 h, the anisotropy values were measured using a Tecan SPARK plate reader with 485/20 nm excitation and 535/25 nm emission polarization filters, suitable for fluorescein, at 25 °C. To obtain the equilibrium dissociation constant (K d), the IC50 values were first derived by fitting a dose–response curve to the data using nonlinear regression analysis in GraphPad Prism. These IC50 values were then converted to K d by using the Cheng–Prusoff equation: Kd=IC50/1+[L]/Kdprobe
(§4) IC50 is the observed value from FP assay, [L] is the probe concentration used, and K d ^probe is the binding affinity of probe for the target.
Background: In fluorescence polarisation assays a small probe gives low polarisation when free and higher when bound to something large.

In a further assay the target is T2, YTHDF2 (Homo sapiens, UniProt Q9Y5A9).
T2 sequence (Q9Y5A9 1-579): T1 sequence (Q9Y5A9 1-579)
Briefly: DNA-fluorescence polarization (FP) competition assay, DF2. It is filed as binding. On the procedure:
An FP competition assay was used to further validate the binding of the compounds to DF2. The main difference with respect to a previously published FP assay is the use of an oligo-DNA as competitor ligand (see Materials and Methods section). […] These differences might originate from the varying conditions in the two assays, such as the competitor mRNA (5′-biotin-[…](m6A)-CUAAGCU-3′) in HTRF and DNA (5′-FAM-[…](m6A)-CTAAGCT-3′) in FP, the salt concentration (150 mM NaCl and 100 mM KF in HTRF, and 150 mM NaCl in FP), and the pH (7.5 in HTRF and 7.4 in FP). The FP-based assay was also employed to assess the selectivity against DC1 and DC2 (see Selectivity section).
as §1, §2, §3, §4

The mark [1] stands for this setting: Cheng-Prusoff from FP IC50, probe Kd 5 nM, two biological replicates.

Read-outs that look alike come from different tables or passages of the source.

Broadly, the IC50 is the midpoint of a concentration-inhibition curve. As a reminder, the Kd is the constant that tells how readily two partners part at equilibrium. A high value points to lower affinity.

`O=c1[nH]c(=S)[nH]c2sccc12` [Compound 14]: at GST-YTHDF2, the “Single-dose residual signal at 100 µM, DF2” value (“Single-dose residual signal” for short) turned out to be 8%; the “LE (ligand efficiency, DF2)” value is recorded as 0.60 kcal/(mol HAC); the half-inhibitory concentration (IC50) turned out to be 18 µM. On YTHDC1, binding was characterised by a dissociation constant (Kd) of 32 µM and the “Selectivity DF2 over DC1 (Kd ratio DC1/DF2)” value was around 8 fold. This compound also yielded a dissociation constant Kd on YTHDF2 of 3.8 µM.
Consider `O=c1[nH]c(=S)[nH]c2sc(Cc3ccccc3)cc12` [Compound S85], for which, at GST-YTHDF2, the “Single-dose residual signal” value was found to be 13% and the half-maximal inhibitory concentration (IC50) turned out to be 33 µM. At YTHDF2 (setting [1]), this compound returned an equilibrium dissociation constant (Kd) of 6.2 µM.
In the case of `O=C(O)c1csc2[nH]c(=S)[nH]c(=O)c12` [Compound S90], on GST-YTHDF2, the “Single-dose residual signal” value came to 14% and the half-maximal inhibitory concentration (IC50) worked out at 60 µM. This compound also yielded a Kd at YTHDF2 (setting [1]) of 10 µM.
For the compound `CCOC(=O)c1csc2[nH]c(=S)[nH]c(=O)c12` [Compound S89], at GST-YTHDF2, the “Single-dose residual signal” value is given as 8% and the IC50 was 62 µM. Moreover, the dissociation constant Kd at YTHDF2 (setting [1]) was found to be 7.5 µM.
For the compound `O=c1[nH]c(=S)[nH]c2scc(-c3ccc(O)cc3)c12` [Compound 19], at GST-YTHDF2, the “Single-dose residual signal” value came out at 5%; the “LE (ligand efficiency, DF2)” value is 0.34 kcal/(mol HAC); the half-inhibitory concentration (IC50) stood at 32 µM. The same compound returned a Kd on YTHDC1 of 27 µM. On YTHDF2, this compound displayed an equilibrium dissociation constant (Kd) of 1.3 µM. The half-maximal inhibitory concentration (IC50) on YTHDF2 (FP IC50 before conversion (Kd = IC50/1.6)) was 2 µM.
As to `Cc1c(-c2ccc([N+](=O)[O-])cc2)sc2[nH]c(=S)[nH]c(=O)c12` [Compound 26], at GST-YTHDF2, the “Improvement of HTRF IC50 compared to fragment 14” value is 3- to 4 fold; the “Single-dose residual signal” value is listed as 7%; the “LE (ligand efficiency, DF2)” value is recorded as 0.35 kcal/(mol HAC); the half-inhibitory concentration (IC50) was determined as 4.9 µM. Also, on YTHDC1, the Kd worked out at 61 µM. The compound further came in with a dissociation constant (Kd) on YTHDF2 of 17 µM.
Turning to `O=c1[nH]c(=S)[nH]c2scc(C3CCCCC3)c12` [Compound S77], at GST-YTHDF2, the “Single-dose residual signal” value was found to be 12% and the concentration for half-maximal inhibition (IC50) is 33 µM. The compound further came in with a dissociation constant Kd on YTHDF2 (setting [1]) of 5.6 µM.
Consider `Cc1c(C(=O)NCc2ccccc2)sc2[nH]c(=S)[nH]c(=O)c12` [Compound 22], for which, on GST-YTHDF2, the “Single-dose residual signal” value was 5%; the “LE (ligand efficiency, DF2)” value is 0.31 kcal/(mol HAC); the IC50 stood at 10 µM. This compound gave a Kd on YTHDC1 of 92 µM. Besides, the Kd at YTHDF2 amounted to 10 µM.
Take `Cc1c(-c2ccc(N)cc2)sc2[nH]c(=S)[nH]c(=O)c12` [Compound 27]: at GST-YTHDF2, the “Improvement of HTRF IC50 compared to fragment 14” value is 3- to 4 fold; the “Single-dose residual signal” value is listed as 0%; the “LE (ligand efficiency, DF2)” value is given as 0.39 kcal/(mol HAC); the half-maximal inhibitory concentration (IC50) was determined as 3.9 µM. On YTHDC1, this compound had a Kd of 14 µM. The same compound had a dissociation constant Kd on YTHDF2 of 1.9 µM.
`Cc1c(C(=O)NCc2cccc(C(=O)O)c2)sc2[nH]c(=S)[nH]c(=O)c12` [Compound 24]: at GST-YTHDF2, the “Single-dose residual signal” value came to 3%; the “LE (ligand efficiency, DF2)” value is on record as 0.26 kcal/(mol HAC); the 50% inhibitory concentration (IC50) was found to be 20 µM. The same compound registered a dissociation constant Kd at YTHDC1 of 24 µM. This compound registered a dissociation constant Kd at YTHDF2 of 2.5 µM.
`COc1ccc(-c2csc3[nH]c(=S)[nH]c(=O)c23)cc1` [Compound S76]: at GST-YTHDF2, the “Single-dose residual signal” value is recorded as 6% and the IC50 turned out to be 24 µM. At YTHDF2 (setting [1]), this compound registered a Kd of 11 µM.
Take `Cc1c(C(=O)NCCCC(=O)O)sc2[nH]c(=S)[nH]c(=O)c12` [Compound 25]: on GST-YTHDF2, the “Single-dose residual signal” value turned out to be 7%; the “LE (ligand efficiency, DF2)” value is given as 0.32 kcal/(mol HAC); the half-inhibitory concentration (IC50) worked out at 14 µM. Also, binding on YTHDC1 was put at a Kd of 32 µM. Moreover, the dissociation constant Kd on YTHDF2 worked out at 1.3 µM.
For `NC(=O)c1csc2[nH]c(=S)[nH]c(=O)c12` [Compound 31], on GST-YTHDF2, the “Single-dose residual signal” value came out at 13%; the “LE (ligand efficiency, DF2)” value is recorded as 0.47 kcal/(mol HAC); the IC50 stood at 14 µM. For the same compound, the equilibrium dissociation constant (Kd) at YTHDC1 was 40 µM. Moreover, binding at YTHDF2 was characterised by a dissociation constant (Kd) of 1.9 µM.
With `Cc1c(C(=O)NCc2cccnc2)sc2[nH]c(=S)[nH]c(=O)c12` [Compound 23], the “Potency for DF2 relative to 6-cyclopropyluracil” value on GST-YTHDF2 (HTRF IC50 values) amounted to 15 factor. For the same compound, at GST-YTHDF2, the “Single-dose residual signal” value is given as 9%; the “LE (ligand efficiency, DF2)” value was 0.31 kcal/(mol HAC); the half-inhibitory concentration (IC50) was found to be 11 µM. Further, at YTHDC1, binding was put at a Kd of 120 µM and the “Selectivity DF2 over DC1 (Kd ratio DC1/DF2)” value is listed as around 100 fold. The compound also registered a Kd on YTHDF2 of 1.3 µM.
On to `COC(=O)c1ccc(-c2csc3[nH]c(=S)[nH]c(=O)c23)cc1` [Compound 17], for which, at GST-YTHDF2, the “Improvement of HTRF IC50 compared to fragment 14” value was 3 fold; the “Single-dose residual signal” value is 4%; the “LE (ligand efficiency, DF2)” value was 0.35 kcal/(mol HAC); the concentration for half-maximal inhibition (IC50) worked out at 4.7 µM. On YTHDC1, this compound displayed an equilibrium dissociation constant (Kd) of 5 µM. At YTHDF2, this compound came in with a Kd of 1.2 µM.
`CC(=O)c1sc2[nH]c(=S)[nH]c(=O)c2c1C` [Compound 20]: on GST-YTHDF2, the “Single-dose residual signal” value is 3%; the “LE (ligand efficiency, DF2)” value was 0.45 kcal/(mol HAC); the IC50 was 13 µM. The same compound gave a Kd at YTHDC1 of 47 µM. This compound yielded a dissociation constant Kd at YTHDF2 of 3.1 µM.
As for `O=C(O)c1ccc(-c2csc3[nH]c(=S)[nH]c(=O)c23)cc1` [Compound 18], at GST-YTHDF2, the “Improvement of HTRF IC50 compared to fragment 14” value was 3 fold; the “Single-dose residual signal” value is listed as 4%; the “LE (ligand efficiency, DF2)” value is reported as 0.36 kcal/(mol HAC); the half-inhibitory concentration (IC50) is 5.4 µM. Further, at YTHDC1, the Kd worked out at 6.9 µM. This compound gave a dissociation constant (Kd) at YTHDF2 of 0.61 µM.
Regarding `O=c1[nH]c(=S)[nH]c2scc(-c3ccc(Br)cc3)c12` [Compound S75], at GST-YTHDF2, the “Single-dose residual signal” value is 4% and the IC50 was 27 µM. Binding at YTHDF2 (setting [1]) was characterised by a dissociation constant (Kd) of 8.8 µM.
Take `CCOC(=O)c1sc2[nH]c(=S)[nH]c(=O)c2c1C` [Compound 21]: on GST-YTHDF2, the “Single-dose residual signal” value is listed as 5%; the “LE (ligand efficiency, DF2)” value was 0.42 kcal/(mol HAC); the half-inhibitory concentration (IC50) came to 6.3 µM. The compound also gave a Kd at YTHDC1 of 36 µM. Moreover, binding at YTHDF2 was put at a Kd of 4.4 µM.
